Measured values as given in ChEMBL document CHEMBL1764964, “Extending SAR of bile acids as FXR ligands: discovery of 23-N-(carbocinnamyloxy)-3α,7α-dihydroxy-6α-ethyl-24-nor-5β-cholan-23-amine” (Bioorg Med Chem, 2011).
The source made the active and inactive calls. No cut-off for these calls is given here.

Tests used:
[1] = target: T1, Bile acid receptor (Homo sapiens) (UniProt Q96RI1); assay: Agonist activity at human GST-fused FXR LBD assessed as coactivator interaction with receptor ligand binding domain by Alphascreen assay relative to CDCA
T1 sequence (whole entry): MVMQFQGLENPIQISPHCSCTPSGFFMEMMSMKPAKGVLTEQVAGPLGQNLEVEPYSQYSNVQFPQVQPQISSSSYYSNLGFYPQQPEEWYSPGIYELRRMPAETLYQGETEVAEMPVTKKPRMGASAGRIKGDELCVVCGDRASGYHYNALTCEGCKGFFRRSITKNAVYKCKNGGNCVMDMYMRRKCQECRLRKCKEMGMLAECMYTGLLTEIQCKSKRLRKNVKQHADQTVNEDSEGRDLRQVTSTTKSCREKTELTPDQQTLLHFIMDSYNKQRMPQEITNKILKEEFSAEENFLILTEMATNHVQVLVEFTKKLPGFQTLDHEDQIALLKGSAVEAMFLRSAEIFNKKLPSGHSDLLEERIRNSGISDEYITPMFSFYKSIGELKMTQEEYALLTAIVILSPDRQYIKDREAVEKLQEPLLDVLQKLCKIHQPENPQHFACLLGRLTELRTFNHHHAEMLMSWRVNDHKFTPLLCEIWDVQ

Bile acid receptor = target: T2, Bile acid receptor (Homo sapiens, UniProt Q96RI1); assay: Agonist activity at human GST-fused FXR LBD assessed as coactivator interaction with receptor ligand binding domain by Alphascreen assay
T2 sequence (Q96RI1 whole entry): T1 sequence (whole entry)

[2] = target: T3, G-protein coupled bile acid receptor 1 (Homo sapiens, UniProt Q8TDU6); assay: Agonist activity at human TGR5 receptor expressed in NCI-H716 cells assessed as intracellular cAMP level by TR-FRET assay; format: functional, cell-based
T3 sequence (Q8TDU6 whole entry): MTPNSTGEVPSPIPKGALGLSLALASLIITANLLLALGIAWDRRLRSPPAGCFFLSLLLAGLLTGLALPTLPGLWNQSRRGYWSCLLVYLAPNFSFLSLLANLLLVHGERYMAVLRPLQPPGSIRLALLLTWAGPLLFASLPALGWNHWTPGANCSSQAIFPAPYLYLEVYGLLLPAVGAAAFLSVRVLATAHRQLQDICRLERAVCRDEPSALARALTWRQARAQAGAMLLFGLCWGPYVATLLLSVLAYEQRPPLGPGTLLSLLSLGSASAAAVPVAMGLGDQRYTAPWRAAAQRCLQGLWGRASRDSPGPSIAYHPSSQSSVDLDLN

[3] = target: T1, Bile acid receptor (Homo sapiens); assay: Agonist activity at human FXR expressed in HepG2 cells assessed as renilla luciferase activity at 20 uM by luciferase based transactivation assay; format: functional, cell-based
[4] = target: T1, Bile acid receptor (Homo sapiens); assay: Agonist activity at human FXR expressed in HepG2 cells assessed as renilla luciferase activity at 1 uM by luciferase based transactivation assay; format: functional, cell-based

Row | Activity [4] | Structure (SMILES) | Efficacy [1] [%] | EC50 (Bile acid receptor) [nM] | EC50 [2] [nM] | Activity [3]
1 | – | C[C@H](CCNC(=O)OC/C=C/c1ccccc1)C1CC[C@H]2[C@@H]3[C@H](O)CC4C[C@H](O)CC[C@]4(C)[C@H]3CC[C@]12C (stereo partly drawn) | 55 | 900 | > 100000 | Active
2 | Active | CC[C@H]1[C@@H](O)[C@@H]2[C@H](CC[C@]3(C)[C@@H]([C@H](C)CCNC(=O)OC/C=C/c4ccccc4)CC[C@@H]23)[C@@]2(C)CC[C@@H](O)C[C@@H]12 | 290 | 150 | 55000 | –
